Source: ChEMBL document CHEMBL1144975, “Improving the selectivity of acyclic nucleoside analogues as inhibitors of human mitochondrial thymidine kinase: replacement of a triphenylmethoxy moiety with substituted amines and carboxamides” (Bioorg Med Chem Lett, 2003)
pIC50: −log10 of the molar value.

Molecular target: T1, Thymidine kinase, cytosolic (Homo sapiens, UniProt P04183)
T1 sequence (P04183 whole entry): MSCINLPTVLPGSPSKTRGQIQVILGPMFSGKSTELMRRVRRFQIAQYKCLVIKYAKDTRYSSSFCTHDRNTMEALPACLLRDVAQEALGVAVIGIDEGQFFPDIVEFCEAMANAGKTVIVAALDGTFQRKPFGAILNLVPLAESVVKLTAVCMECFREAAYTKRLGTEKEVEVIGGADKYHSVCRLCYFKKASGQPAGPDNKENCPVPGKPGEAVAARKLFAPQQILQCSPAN
Assay: Inhibitory concentration on phosphorylation of [methyl-3H]-dTh by human Thymidine Kinase 1

pIC50: < 3.30
Structure (SMILES): Cc1cn(C/C=C\CN(Cc2ccccc2)Cc2ccccc2)c(=O)[nH]c1=O
